Assay results taken from patent US20060264509A1, “Methods for treating pain using smooth muscle modulators and a2 subunit calcium channel modulators” (priority 2003, published 2006).
Several values for one entry are separate records, joined by “and”; a condition that tells them apart may be missing. Equal values may be shown once. Read-outs that look alike come from different tables or passages of the source.

How the values were obtained:
bladder capacity = test: Dilute acetic acid irritative model, bladder capacity by cystometry in urethane-anesthetized rats; format: in vivo, rat; conditions: for effectiveness of drug alone on bladder capacity: i.v.; for effective dose range of the drug in the isobologram combinations compared with the drug alone: individual animals, return to 31% of saline control
Procedure: Subsequently, three series at markedly lower doses and at different dose ratios were performed for the purposes of isobologram construction (n=4/group).
Subsequent studies aimed at isobologram construction combined the drugs in dose combinations as shown in the table below (low, middle and high doses for each drug paired).
The abdominal cavity was moistened with saline and closed by covering with a thin plastic sheet in order to maintain access to the bladder for emptying purposes.
Bladder capacity data for each animal were normalized to “% Recovery from Irritation,” and this index was used as the measure of efficacy. Data from experiments in which each of the drugs were administered alone were utilized to create theoretical populations of additive effects for each dose (low, mid and high), and these were compared by one-tailed t-test (individual dose comparisons) and by 2-Way ANOVA (across doses) to the actual combination drug data. The means and standard deviations of each individual treatment's “dose-matched” (low, middle, and high) responses were added together to estimate the mean and standard deviation of the theoretical additive populations for which to compare to the actual data obtained from the combination experiments. The theoretical additive effect population N=(Nantimuscarinic+Nα28 subunit modulator)−1. P<0.050 was considered significant.
Isobologram construction consisted of two methods, both utilizing the same data, but plotting the results either as group means or by individual responses. […] When utilizing individual responses for both drugs alone and the combinations listed in the above table, the target value was 31% of saline control. […] For statistical purposes, the data were analyzed making comparisons for each drug, regardless of whether alone or in combination.

[1] = for pharmacokinetic drug-drug interaction between oxybutynin and gabapentin: rat, i.v. 3 mg/kg oxybutynin and 100 mg/kg gabapentin
[2] = tested on: nociception induced by formalin and carrageenan; mechanical hyperalgesia and mechanical/thermal allodynia; conditions: Rose et al. (2002); cited from earlier work
[3] = tested on: painful symptoms associated with diabetic peripheral neuropathy, post-herpetic neuralgia, and neuropathic pain; conditions: double-blind, placebo-controlled trials; cited from earlier work
beta-adrenergic blocking = conditions: cited from earlier work
[4] = preclinical and clinical studies, cited from earlier work
[5] = analyte gabapentin in rat plasma, i.v. 100 mg/kg gabapentin alone (Gab) or with 3 mg/kg oxybutynin (Com), group Mean
[6] = analyte gabapentin in rat plasma, i.v. 100 mg/kg gabapentin alone (Gab) or with 3 mg/kg oxybutynin (Com), group Mean, outliers excluded
[7] = analyte gabapentin in rat plasma, i.v. 100 mg/kg gabapentin alone (Gab) or with 3 mg/kg oxybutynin (Com), individual animals

CCN(CC)CC#CCOC(=O)C(O)(c1ccccc1)C1CCCCC1 (stereo not drawn) [Oxy, 4-diethylaminio-2-butynyl phenylcyclohexyglycolate]
effectiveness of drug alone on bladder capacity (bladder capacity): modest effectiveness
effective dose range of the drug in the isobologram combinations compared with the drug alone (bladder capacity): significantly lower
pharmacokinetic drug-drug interaction between oxybutynin and gabapentin [1]: No evidence of drug-drug interaction

NCC1(CC(=O)O)CCCCC1 [Gab, 1-(aminomethyl) cyclohexaneacetic acid]
effectiveness of drug alone on bladder capacity (bladder capacity): modest effectiveness
effective dose range of the drug in the isobologram combinations compared with the drug alone (bladder capacity): significantly lower
AUC0-∞ [1, 5]: 1.62e+07 ng·min/mL
CL [1, 5]: 6.52 mL/min/kg
Vz [1, 5]: 1.242 L/kg
t1/2 [1, 5]: 128 min
AUC0-t [1, 6]: 9.45e+06 ng·min/mL
Cmax [1, 6]: 98.6 µg/mL
AUC0-∞ [1, 7]: 1.95e+07 ng·min/mL
CL [1, 7]: 5.12 mL/min/kg
Tmax [1, 7]: 15 min and 30 min
Vz [1, 7]: 0.91 L/kg and 0.89 L/kg
comparison of Cmax and AUC0-T data for gabapentin between single-drug group and combination (Com) group ([1]; rat plasma, i.v., Table 2): no appreciable difference
pharmacokinetic drug-drug interaction between oxybutynin and gabapentin [1]: No evidence of drug-drug interaction
effect in neuropathic pain models of mechanical hyperalgesia and mechanical/thermal allodynia [2]: inhibitory effect
effect on nociception induced by formalin and carrageenan [2]: block the tonic phase of nociception
efficacy for painful symptoms associated with diabetic peripheral neuropathy, post-herpetic neuralgia, and neuropathic pain [3]: effective treatment

CCNCC#CCOC(=O)C(O)(c1ccccc1)C1CCCCC1 (stereo not drawn) [desethyl oxybutynin, N-desethyl-oxybutynin]
comparison of Cmax and AUC0-t data for desethyl oxybutynin between oxybutynin (Oxy) group and combination (Com) group ([1]; rat plasma, i.v., Table 4): no appreciable difference

CC(C)NCC(O)COc1cccc2ccccc12 (stereo not drawn) [propranolol]
potency of L-enantiomer relative to D-enantiomer (beta-adrenergic blocking): 100 times

CC(OC(=O)NCC1(CC(=O)O)CCCCC1)OC(=O)C(C)C (stereo not drawn) [XP13512]
blood levels of gabapentin across a broad range of oral doses ([4]; oral): dose proportional
absorption from the large intestine [4]: absorbed efficiently
